{
  "source": "patent US20240343699A1",
  "about": "“DERIVATIVES OF SUBSTITUTED MORPHOLINES AND USES THEREOF” (Supernus Pharmaceuticals, Inc., priority 2023, published 2024)",
  "key": {"rat red blood cells": {"system": "rat red blood cells", "assay": "Hemolysis in rat blood", "type": "cell-based", "description": "Stability of Test Articles at Different pH Values. 10 mM stock solutions of COMPOUND A were prepared in DMSO. From this stock solution, a single concentration in a 10 μL aliquot was added to three fluid matrices: SGF at pH 2.0 (gastric), SIF at pH 6.0 (upper intestine), and PBS at 7.4 (systemic). The final volume was 1 mL (0.1 mM). The preparations were then incubated at 37° C. and samples were collected at 0, 15, 30, 60, and 120 min for analysis of parent material by LC/MS/MS. The collected sample was quenched in acetonitrile/0.1% formic acid mixture. Red Blood Cell (RBC): Human and rat blood were centrifuged to separate out red blood cells at […] for 15 min. The upper plasma level was aspirated with a micropipette and placed in a bleach solution for disposal. The RBC pellet was resuspended in sterile isotonic saline. The pellet was gently resuspended by rocking the tube. The sample was then centrifuged again to collect the RBC pellet and then resuspended and washed one more time following the same procedure. A total of three was done. Following the last wash and centrifugation, the RBCs were resuspended with PBS; and mixed by inversion. Aliquots of the resuspended and washed RBCs were then placed into 4 reaction tubes. These tubes were centrifuged to collect the RBCs. The fluid level was marked on each tube, then the supernatant was aspirated off and the cells resuspended with room temperature PBS pH 7.4 to the original mark. An aliquot of the RBC suspension was added to four sterile tubes containing PBS pH 7.4 at room temperature.\nStability in Human and Rat Red Blood cells and Hemolysis. […] After centrifugation, 70 μL of supernatant (without disturbing the pellet) was transferred to a clean and clear polystyrene flat bottomed 96-well plate and the absorbance of the sample at a single wavelength was measured using a Bio Tech Synergy Hl Plate Reader at a wavelength of 410 nm. […] Stability was measured by measuring loss of parent compound using LC/MS/MS."}, "anxiety-like behavior": {"system": "anxiety-like behavior", "assay": "Elevated plus maze (EPM)", "type": "in vivo, male Wistar rats", "settings": "for Closed arm entries / Closed arm returns / Head dips in open arms / Stretch-attend postures / Time in closed arms / Time in open arms / Total arm entries: mean; for % Time in open arms / Open Arm Entries / Total distance travelled: mean ± S.E.M."}, "[1]": {"assay": "Stability in human gut microbiota (fecal matter)", "type": "in vitro ADME", "settings": "pH 6 and 7.4, all time points", "description": "Stability in Rat and Human Gut Microbiota. Rat fecal material was obtained and weighed. One capsule of the raw probiotics was crushed and weighed prior to use. The weighed samples were then solubilized in PBS at pH 6.0 and 7.4 to extract microorganisms. The samples were centrifuged at 18,000×g for 10 min to remove particulates and the supernatant was used to evaluate test article stability. An aliquot (50 μL) of the COMPOUND A stock solution was added to the fecal extract (final concentration 0.5 mM) and allowed to incubate at 37° C. Aliquots were collected at 0, 15, 30, 60, and 120 min and analyzed by LC/MS/MS to determine stability of the parent molecule. The collected sample was quenched in acetonitrile/0.1% formic acid mixture."}, "[2]": {"settings": "30 mg/kg PO 20 min prior to EPM"}, "[3]": {"settings": "60 mg/kg PO 20 min prior to EPM"}, "[4]": {"settings": "120 mg/kg PO 40 min prior to EPM"}},
  "data": [
    {"smiles": "CCOc1ccccc1OC[C@@H]1CN(C(=O)OC(C)OC(=O)[C@@H](N)C(C)C)CCO1", "note": "(stereo partly shown) [COMPOUND A]", "values": [
      {"measurement": "hemolysis (% RBC lysis)", "setting": "rat red blood cells; rat blood, 25, 50, 100 μM, 1 hr", "result": "no detectable hemolysis"},
      {"measurement": "EC50 (% RBC lysis)", "setting": "rat red blood cells; rat blood, 60 min exposure", "result": "outside the concentration range tested"},
      {"measurement": "Closed arm entries", "setting": "anxiety-like behavior; [2]", "result": 10.00},
      {"measurement": "Closed arm returns", "setting": "anxiety-like behavior; [2]", "result": 2.00},
      {"measurement": "Head dips in open arms", "setting": "anxiety-like behavior; [2]", "result": 2.25},
      {"measurement": "Stretch-attend postures", "setting": "anxiety-like behavior; [2]", "result": 18.00},
      {"measurement": "Time in closed arms", "setting": "anxiety-like behavior; [2]", "result": 282.58, "unit": "s"},
      {"measurement": "Time in open arms", "setting": "anxiety-like behavior; [2]", "result": 8.74, "unit": "s"},
      {"measurement": "Total arm entries", "setting": "anxiety-like behavior; [2]", "result": 11.00},
      {"measurement": "% Time in open arms", "setting": "anxiety-like behavior; [2]", "result": "2.91 ± 1.28", "unit": "%"},
      {"measurement": "Open Arm Entries", "setting": "anxiety-like behavior; [2]", "result": "1.00 ± 0.33"},
      {"measurement": "Total distance travelled", "setting": "anxiety-like behavior; [2]", "result": "1591.15 ± 73.52", "unit": "cm"},
      {"measurement": "Closed arm entries", "setting": "anxiety-like behavior; [3]", "result": 7.00},
      {"measurement": "Closed arm returns", "setting": "anxiety-like behavior; [3]", "result": 2.13},
      {"measurement": "Head dips in open arms", "setting": "anxiety-like behavior; [3]", "result": 3.63},
      {"measurement": "Stretch-attend postures", "setting": "anxiety-like behavior; [3]", "result": 18.63},
      {"measurement": "Time in closed arms", "setting": "anxiety-like behavior; [3]", "result": 281.10, "unit": "s"},
      {"measurement": "Time in open arms", "setting": "anxiety-like behavior; [3]", "result": 7.25, "unit": "s"},
      {"measurement": "Total arm entries", "setting": "anxiety-like behavior; [3]", "result": 7.63},
      {"measurement": "% Time in open arms", "setting": "anxiety-like behavior; [3]", "result": "2.42 ± 0.92", "unit": "%"},
      {"measurement": "Open Arm Entries", "setting": "anxiety-like behavior; [3]", "result": "0.63 ± 0.18"},
      {"measurement": "Total distance travelled", "setting": "anxiety-like behavior; [3]", "result": "1318.06 ± 39.58", "unit": "cm"},
      {"measurement": "Closed arm entries", "setting": "anxiety-like behavior; [4]", "result": 9.63},
      {"measurement": "Closed arm returns", "setting": "anxiety-like behavior; [4]", "result": 2.00},
      {"measurement": "Head dips in open arms", "setting": "anxiety-like behavior; [4]", "result": 2.25},
      {"measurement": "Stretch-attend postures", "setting": "anxiety-like behavior; [4]", "result": 20.38},
      {"measurement": "Time in closed arms", "setting": "anxiety-like behavior; [4]", "result": 283.06, "unit": "s"},
      {"measurement": "Time in open arms", "setting": "anxiety-like behavior; [4]", "result": 0.85, "unit": "s"},
      {"measurement": "Total arm entries", "setting": "anxiety-like behavior; [4]", "result": 9.88},
      {"measurement": "% Time in open arms", "setting": "anxiety-like behavior; [4]", "result": "0.28 ± 0.19", "unit": "%"},
      {"measurement": "Open Arm Entries", "setting": "anxiety-like behavior; [4]", "result": "0.25 ± 0.16"},
      {"measurement": "Total distance travelled", "setting": "anxiety-like behavior; [4]", "result": "1476.54 ± 60.73", "unit": "cm"},
      {"measurement": "total distance traveled vs vehicle", "setting": "anxiety-like behavior; COMPOUND A 60 and 120 mg/kg p.o.", "result": "travelled a significantly shorter distance"},
      {"measurement": "amount of parent compound in human fecal matter", "setting": "[1]", "result": "~100", "unit": "%"}
    ]}
  ]
}
